From US8685974B2 (Bayer CropScience AG, priority 2009, dated 2014)
“And” between values parts separate entries of the source, which are not always exact repeats. Identical values can stand only once. Like-named read-outs stand apart in the source and are kept apart here. Marks after values point to notes of the source that are not given here.

Tests used:
Sphaerotheca fuliginea = assay: In vivo test on Sphaerotheca fuliginea (cucurbits powdery mildew); settings: dose of 500 ppm; gherkin plants; grading 12 days after contamination
Procedure: In Vivo Test on Sphaerotheca fuliginea (Cucurbits Powdery Mildew)
(§1) The active ingredients tested are prepared by homogenization in a mixture of acetone/tween/DMSO, then diluted with water to obtain the desired active material.
Gherkin plants (Vert petit de Paris variety) in starter cups, sown on a 50/50 peat soil-pozzolana substrate and grown at 20° C./23° C., are treated at the cotyledon Z10 stage by spraying with the aqueous suspension described above. Plants, used as controls, are treated with an aqueous solution not containing the active material.
After 24 hours, the plants are contaminated by spraying them with an aqueous suspension of Sphaerotheca fuliginea spores (100 000 spores per ml). The spores are collected from a contaminated plants. The contaminated gherkin plants are incubated at about 20° C./25° C. and at 60/70% relative humidity.
Grading (% of efficacy) is carried out 12 days after the contamination, in comparison with the control plants.

[1] = pH 2.7; for logP value of the minor isomer (in parenthesis in column Isomer ratio [d]): main value of the example measured by method [b]
Pyrenophora teres = assay: In vivo test on Pyrenophora teres (barley net blotch); settings: dose of 500 ppm; barley plants; grading 12 days after contamination
Outline: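 Scoring is done 12 days after spore spraying (12,000 spores/ml, from 12-day-old culture), relative to water-treated controls. Inoculation follows by 24 h a preventive spray of the aqueous-diluted formulation onto 1-leaf Plaisant barley raised at 12° C.; infection holds 24 h at about 20° C./100% RH, then 12 days at 80% RH.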

Botrytis cinerea = assay: In vivo test on Botrytis cinerea (grey mould); settings: dose of 500 ppm; gherkin plants; grading 5/7 days after contamination
Procedure: In Vivo Test on Botrytis cinerea (Grey Mould)
The active ingredients tested are prepared by homogenization in a mixture of acetone/Tween/DMSO, then diluted with water to obtain the desired active material
Gherkin plants (Vert petit de Paris variety), sown on a 50/50 peat soil-pozzolana substrate in starter cups and grown at 18-20° C., are treated at the cotyledon Z11 stage by spraying with the active ingredient prepared as described above.
(§2) Plants, used as controls, are treated with an aqueous solution not containing the active material.
After 24 hours, the plants are contaminated by depositing drops of an aqueous suspension of Botrytis cinerea spores (150,000 spores per ml) on upper surface of the leaves. The spores are collected from a 15-day-old culture and are suspended in a nutrient solution composed of: • 20 g/L of gelatine; • 50 g/L of D-fructose; • 2 g/L of NH4NO3; • 1 g/L of KH2PO4.
The contaminated cucumber plants are settled for 5/7 days in a climatic room at 15-11° C. (day/night) and at 80% relative humidity.
Grading is carried out 5/7 days after the contamination, in comparison with the control plants.

Peronospora parasitica = assay: In vivo test on Peronospora parasitica (crucifer downy mildew); settings: dose of 500 ppm; cabbage plants; grading 5 days after contamination
Procedure: In Vivo Test on Peronospora parasitica (Crucifer Downy Mildew)
The active ingredients tested are prepared by homogenization in a mixture of acetone/Tween/DMSO, then diluted with water to obtain the desired active material concentration.
Cabbage plants (Eminence variety) in starter cups, sown on a 50/50 peat soil-pozzolana substrate and grown at 18-20° C., are treated at the cotyledon stage by spraying with the aqueous suspension described above.
as §2
After 24 hours, the plants are contaminated by spraying them with an aqueous suspension of Peronospora parasitica spores (50 000 spores per ml). The spores are collected from infected plant.
The contaminated cabbage plants are incubated for 5 days at 20° C., under a humid atmosphere.
Grading is carried out 5 days after the contamination, in comparison with the control plants.

Puccinia recondita = assay: In vivo test on Puccinia recondita (brown rust); settings: dose of 500 ppm; wheat plants; grading 10 days after contamination
Procedure: In Vivo Test on Puccinia recondita (Brown Rust)
as §1
Wheat plants (Scipion variety) sown on 50/50 peat soil-pozzolana substrate in starter cups and grown at 12° C., are treated at the 1-leaf stage (10 cm tall) by spraying with the aqueous suspension described above.
as §2
After 24 hours, the plants are contaminated by spraying the leaves with an aqueous suspension of Puccinia recondita spores (100,000 spores per ml). The spores are collected from a 10-day-old contaminated wheat and are suspended in water containing 2.5 ml/l of tween 80 10%. The contaminated wheat plants are incubated for 24 hours at 20° C. and at 100% relative humidity, and then for 10 days at 20° C. and at 70% relative humidity.
Grading is carried out 10 days after the contamination, in comparison with the control plants.

[2] = logP by HPLC at pH 2.3 (0.1% phosphoric acid / acetonitrile); format: physicochemical; settings: method [a]: pH 2.3 with 0.1% phosphoric acid and acetonitrile as eluent
Alternaria solani = assay: Alternaria test (tomato) / protective; format: in vivo; settings: 500 ppm active compound, protective spray, evaluated 7 days after inoculation
Outline: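 Efficacy scored 7 days after inoculation, where 100% means no infection and 0% matches the untreated control. Test plants were young tomatoes given a protective spray at the stated rate, compound dissolved in DMF plus emulsifier and diluted with water. Incubation at 20° C, 96% relative humidity.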

Fusarium graminearum = format: cell-based; settings: 50 μM; for % Inhibition of DON/AcDON at 50 μM: 7 days at 28° C.
Leptosphaeria nodorum = Leptosphaeria nodorum test (wheat) / protective; format: in vivo; settings: 500 ppm active compound, protective spray, evaluated 7-9 days after inoculation
Outline: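 Young wheat plants sprayed protectively with compound in DMF/alkylaryl polyglycol ether emulsion diluted in water, then kept in greenhouse at 90% rel. humidity, 22° C. Scored 7-9 days after inoculation as % efficacy, 0% equal to untreated control and 100% no infection.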

[3] = logP by HPLC on reversed phase columns, method [a] (pH 2.3); format: physicochemical; settings: for log p: method [a]: pH 2.3, 0.1% phosphoric acid and acetonitrile as eluent, main isomer
Fusarium proliferatum = assay: Production of fumonisin FB1 by Fusarium proliferatum (microtiter plate, HPLC-MS/MS and OD620); format: cell-based

## CC(C)=CCn1cc(-c2ccncc2)c(-c2ccc(Cl)s2)n1 [Example 7]
Sphaerotheca fuliginea
  protection (% of efficacy): 78%
[1]
  log p: 2.25^[b]

## CC(C)CC(C)n1ncc(-c2ccncc2)c1-c1ccc(Cl)s1 (stereo not drawn) [Example 14]
Sphaerotheca fuliginea
  protection (% of efficacy): 78%
[1]
  log p: 2.42^[b]

## Clc1ccc(-c2nn(C3CCCC3)cc2-c2ccncc2)s1 [Example 15]
Pyrenophora teres
  protection: 89%
Botrytis cinerea
  protection: 100%
Sphaerotheca fuliginea
  protection (% of efficacy): 92%
[1]
  log p: 2.25^[b]

## CC(C)C(C)n1ncc(-c2ccncc2)c1-c1ccc(Cl)s1 (stereo not drawn) [Example 20]
Peronospora parasitica
  protection: at least 70%
[1]
  log p: 2.1^[b]

## CC#CCn1cc(-c2ccncc2)c(-c2ccc(Cl)s2)n1 [Example 51]
Puccinia recondita
  protection: 75%
Sphaerotheca fuliginea
  protection (% of efficacy): 100%
[1]
  logP value of the minor isomer (in parenthesis in column Isomer ratio [d]): (1.60)
  log p: 1.81^[b]

## ClCCn1cc(-c2ccncc2)c(-c2ccc(Cl)s2)n1 [Example 55]
Pyrenophora teres
  protection: 80%
Botrytis cinerea
  protection: 75%
[1]
  logP value of the minor isomer (in parenthesis in column Isomer ratio [d]): (1.50)
  log p: 1.65^[b]

## Clc1ccc(-c2nn(CC3CCCO3)cc2-c2ccncc2)s1 (stereo not drawn) [Example 56]
Sphaerotheca fuliginea
  protection (% of efficacy): 88%
[1]
  logP value of the minor isomer (in parenthesis in column Isomer ratio [d]): (1.44)
  log p: 1.6^[b]

## Clc1ccc(-c2nn(CCc3ccccc3)cc2-c2ccncc2)s1 [Example 58]
Sphaerotheca fuliginea
  protection (% of efficacy): 81%
[1]
  log p: 2.3^[b]

## Clc1ccc(-c2nn(CCN3CCOCC3)cc2-c2ccncc2)s1 [Example 60]
Peronospora parasitica
  protection: 98%
Sphaerotheca fuliginea
  protection (% of efficacy): 75%
[1]
  log p: 0.52^[b]

## CCOC(=O)Cn1cc(-c2ccncc2)c(-c2ccc(Cl)s2)n1 [Example 63]
Peronospora parasitica
  protection: 94%
Sphaerotheca fuliginea
  protection (% of efficacy): 88%
[1]
  log p: 1.67^[b]

## Clc1ccc(-c2nn(C3CC3)cc2-c2ccncc2)s1 [Example 66]
Pyrenophora teres
  protection: 92%
Puccinia recondita
  protection: 89% and 95%
Sphaerotheca fuliginea
  protection (% of efficacy): 95%
[1]
  log p: 1.62^[b]

## CC(=O)n1cc(-c2ccncc2)c(-c2ccc(Cl)s2)n1 [Example 86]
Peronospora parasitica
  protection: 92%
Puccinia recondita
  protection: 75%
[1]
  log p: 2.04^[b]

## CCC(C)n1cc(-c2cc[n+]([O-])cc2)c(-c2ccc(Cl)s2)n1 (stereo not drawn) [Example 92]
Sphaerotheca fuliginea
  protection (% of efficacy): 100%
[1]
  log p: 2.56^[b]

## CCn1cc(-c2ccnc(N=C(c3ccccc3)c3ccccc3)c2)c(-c2ccc(Cl)s2)n1 [Example 311]
[2]
  log p: 3.99^[a]
Alternaria solani
  efficacy: 70%

## CC(C)Nc1nccc(-c2c[nH]nc2-c2ccc(Cl)s2)n1 [Example 312]
Fusarium graminearum
  % Inhibition of fungal growth at 50 μM: 87%
  % Inhibition of DON/AcDON at 50 μM: 99%
[2]
  log p: 1.79^[a]

## CC(C)Cn1cc(-c2ccnc(NC(=O)OC(C)C)c2)c(-c2ccc(Cl)s2)n1 [Example 319]
[2]
  log p: 5.15^[a]

## CC(C)Cn1cc(-c2ccnc(NC(=O)c3cccs3)c2)c(-c2ccc(Cl)s2)n1 [Example 320]
[2]
  log p: 4.62^[a]

## CCNC(=O)Nc1cc(-c2cn(CC(C)C)nc2-c2ccc(Cl)s2)ccn1 [Example 321]
Fusarium graminearum
  % Inhibition of fungal growth at 50 μM: 39%
  % Inhibition of DON/AcDON at 50 μM: 92%
[2]
  log p: 3.18^[a]

## CC(=O)Nc1cc(-c2cn(CC(C)C)nc2-c2ccc(Cl)s2)ccn1 [Example 358]
Pyrenophora teres
  protection: 80%
Fusarium graminearum
  % Inhibition of fungal growth at 50 μM: 102%
  % Inhibition of DON/AcDON at 50 μM: 100%
[2]
  log p: 2.96^[a]
Alternaria solani
  efficacy: 100%

## CC(C)Cn1cc(-c2ccnc(NC(=O)C3CC3)c2)c(-c2ccc(Cl)s2)n1 [Example 359]
Pyrenophora teres
  protection: 70%
Fusarium graminearum
  % Inhibition of fungal growth at 50 μM: 62%
  % Inhibition of DON/AcDON at 50 μM: 100%
[2]
  log p: 3.48^[a]
Alternaria solani
  efficacy: 94%
Leptosphaeria nodorum
  efficacy: 90%

## COCC(=O)Nc1cc(-c2cn(CC(C)C)nc2-c2ccc(Cl)s2)ccn1 [Example 360]
Fusarium graminearum
  % Inhibition of fungal growth at 50 μM: 12%
  % Inhibition of DON/AcDON at 50 μM: 100%
[2]
  log p: 3.78^[a]
Alternaria solani
  efficacy: 78%

## CC(C)Cn1cc(-c2ccnc(NC(=O)C3CCC3)c2)c(-c2ccc(Cl)s2)n1 [Example 361]
[2]
  log p: 3.96^[a]
Alternaria solani
  efficacy: 94%

## CC(C)Cn1cc(-c2ccnc(NS(C)(=O)=O)c2)c(-c2ccc(Cl)s2)n1 [Example 362]
[2]
  log p: 3.04^[a]

## CC#Cc1c(-c2ccncc2)c(-c2ccc(Cl)s2)nn1C(C)C [Example 412]
Fusarium graminearum
  % Inhibition of fungal growth at 50 μM: 98%
  % Inhibition of DON/AcDON at 50 μM: 93%
Alternaria solani
  efficacy: 90%
Leptosphaeria nodorum
  efficacy: 70%
[3]
  log p: 2.78^[a]

## CC#Cc1c(-c2ccncc2)c(-c2ccc(Cl)s2)nn1Cc1ccc(OC)cc1 [Example 420]
Fusarium proliferatum; 5 days at 20° C., HPLC-MS/MS
  % inhibition FB1 production at 50 μM: 90%
Fusarium proliferatum; Fusarium proliferatum, OD620 at start and after 5 days
  % inhibition fungal growth at 50 μM: 21%
[3]
  log p: 3.02^[a]
[3]; minor isomer, in parentheses in the Isomer ratio column, method [a], pH 2.3
  logP value of the minor isomer: (2.53)

## CC(C)Cn1cc(-c2cc(N)ncn2)c(-c2ccc(Cl)s2)n1 [Example 423]
Pyrenophora teres
  protection: 75%
Fusarium graminearum
  % Inhibition of fungal growth at 50 μM: 91%
  % Inhibition of DON/AcDON at 50 μM: 99%
Alternaria solani
  efficacy: 94%
Leptosphaeria nodorum
  efficacy: 80%
[3]
  log p: 1.97^[a]
